Data: ChEMBL document CHEMBL1135900, “Toward selective ERbeta agonists for central nervous system disorders: synthesis and characterization of aryl benzthiophenes” (J Med Chem, 2002)

Tests used:
Estrogen receptor [1] = molecular target: T1, Estrogen receptor (Homo sapiens, UniProt P03372)
T1 sequence (P03372 whole entry): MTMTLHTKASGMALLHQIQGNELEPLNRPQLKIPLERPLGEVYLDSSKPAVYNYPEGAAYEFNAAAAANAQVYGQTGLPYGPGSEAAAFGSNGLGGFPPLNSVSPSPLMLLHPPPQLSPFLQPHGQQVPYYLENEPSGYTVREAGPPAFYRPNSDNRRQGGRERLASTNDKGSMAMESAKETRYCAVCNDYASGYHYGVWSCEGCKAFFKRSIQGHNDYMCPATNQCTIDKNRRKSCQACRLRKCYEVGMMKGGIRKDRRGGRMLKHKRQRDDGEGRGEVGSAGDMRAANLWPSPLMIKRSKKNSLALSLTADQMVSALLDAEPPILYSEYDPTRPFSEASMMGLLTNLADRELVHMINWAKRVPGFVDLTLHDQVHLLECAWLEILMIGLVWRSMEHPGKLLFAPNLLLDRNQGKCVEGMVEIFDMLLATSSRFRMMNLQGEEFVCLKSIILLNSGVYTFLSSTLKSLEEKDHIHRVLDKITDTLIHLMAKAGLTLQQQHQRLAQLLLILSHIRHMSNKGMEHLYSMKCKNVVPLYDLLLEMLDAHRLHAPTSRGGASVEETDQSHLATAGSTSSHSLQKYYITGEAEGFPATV
Description: Activation of estrogen response element in HeLa cells stably transfected with human Estrogen receptor alpha.

Estrogen receptor [2] = molecular target: T1, Estrogen receptor; remark: listed apart in the source
Description: Inhibition of [3H]17-beta-estradiol binding to human recombinant Estrogen receptor alpha.

Estrogen receptor beta [3] = molecular target: T2, Estrogen receptor beta (Homo sapiens, UniProt Q92731)
Description: Inhibition of [3H]17-beta-estradiol binding to human recombinant Estrogen receptor beta.

Estrogen receptor beta [4] = molecular target: T2, Estrogen receptor beta; remark: listed apart in the source
Description: Activation of estrogen response element in HeLa cells stably transfected with human Estrogen receptor beta.

Estrogen receptor beta [5] = molecular target: T2, Estrogen receptor beta; test: Agonist activity in transcriptional activation assay in SH-SY5Y neuroblastoma cells expressing Estrogen receptor beta; format: functional, cell-based

T2 sequence (Q92731 whole entry): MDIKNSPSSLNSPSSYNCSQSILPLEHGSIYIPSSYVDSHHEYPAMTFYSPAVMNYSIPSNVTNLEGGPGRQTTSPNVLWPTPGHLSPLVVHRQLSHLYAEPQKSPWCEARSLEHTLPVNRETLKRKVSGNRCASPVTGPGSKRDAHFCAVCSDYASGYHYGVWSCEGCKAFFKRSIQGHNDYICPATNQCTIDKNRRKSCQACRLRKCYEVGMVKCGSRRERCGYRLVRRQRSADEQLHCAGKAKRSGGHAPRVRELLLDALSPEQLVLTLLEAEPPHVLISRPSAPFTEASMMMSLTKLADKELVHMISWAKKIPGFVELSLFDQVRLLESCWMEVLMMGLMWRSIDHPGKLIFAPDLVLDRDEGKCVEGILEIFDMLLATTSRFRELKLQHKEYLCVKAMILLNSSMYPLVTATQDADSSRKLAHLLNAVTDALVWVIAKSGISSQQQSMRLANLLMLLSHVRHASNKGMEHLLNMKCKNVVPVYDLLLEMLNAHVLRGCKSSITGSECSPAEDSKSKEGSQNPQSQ

EC50 (Estrogen receptor [1]) [nM]	EC50 (Estrogen receptor [2]) [nM]	EC50 (Estrogen receptor beta [3]) [nM]	EC50 (Estrogen receptor beta [4]) [nM]	EC50 (Estrogen receptor beta [5]) [nM]	SMILES
1000	> 10000	7470	> 1000		Oc1cc(O)c2cc(-c3ccc(O)c(F)c3)sc2c1
269	2210	740	245		Oc1cccc(-c2cc3ccc(O)cc3s2)c1
191	7440	4710	257		CCc1cc(-c2cc3ccc(O)cc3s2)ccc1O
148	3650	1830	302		Cc1cc(-c2cc3ccc(O)cc3s2)ccc1O
138	1030	115	32	13	Oc1ccc2cc(-c3ccc(O)c(F)c3)sc2c1
178	> 10000	> 10000	174	120	Cc1ccc(-c2cc3ccc(O)cc3s2)cc1
162	> 10000	3940	186	257	CCCc1cc(-c2cc3ccc(O)cc3s2)ccc1O
363	4980	249	525		Oc1ccc2cc(-c3ccc(O)c(O)c3)sc2c1
209	3710	4310	166	69	Oc1ccc2cc(-c3ccccc3)sc2c1
		114	17	10	Oc1ccc(-c2cc3ccc(O)cc3s2)cc1 [RALOXIFENE CORE]

SMILES	EC50 (Estrogen receptor [1]) [nM]	EC50 (Estrogen receptor [2]) [nM]	EC50 (Estrogen receptor beta [3]) [nM]	EC50 (Estrogen receptor beta [4]) [nM]	EC50 (Estrogen receptor beta [5]) [nM]
Cc1cc(-c2cc3c(O)cc(O)cc3s2)ccc1O	> 1000	> 10000	> 10000	> 1000	
Cc1cc(O)ccc1-c1cc2ccc(O)cc2s1	48	341	129	15	16
CC(=O)c1cc(-c2cc3ccc(O)cc3s2)ccc1O	> 1000	> 10000	> 10000	> 1000	
